Source: patent US20260325485A1, “COMPOSITIONS AND METHODS FOR TREATING PANCREATITIS” (The United States Government as represented by the …, priority 2022, published 2026)
“Also recorded” adds a separate entry of the source. Residues, ends and D or L forms follow the SMILES beside them.

Columns and labels:
pancreas [1] = details: pharmacologic autophagy enhancer; cited from earlier work
mouse acinar cells [2] = details: cited from earlier work
trypsin [3] = experiment: Trypsin activity in Gnptab−/− acinar cells; type: cell-based, mouse; details: Gnptab−/− acinar cells, cholesterol chelator MCD
Method: FIGS. 6A-6R show mechanisms mediating increased trypsin activity in Gnptab−/− pancreas. Trypsin activity and its regulation were analyzed in pancreatic (A, C, and D) tissue, (B and P-R) acinar cells, (E-H and O) lobules, and (I-N) subcellular fractions. In B, acinar cells were incubated for 3 hours without and with 20 nM BafAl or 50 μM CatB inhibitor CA-074Me; in P-R, with the cholesterol chelator methyl-β-cyclodextrin (MCD) at the indicated concentrations. In E-H, pancreatic lobules were double stained for TAP and LC3 or LAMP2; in O, for TAP and filipin. Quantitative colocalization analysis was done as detailed in FIG. 2. Each symbol in A, B, J-N, Q, and R represents an individual mouse or cell preparation (n=3-8 per condition). Each symbol in D, G, and H corresponds to 20 to 30 cells in a different field (n=9-20 fields from 3 WT and 3 KO mice or lobule preparations). Values are mean±SEM. **P<0.01, ***P<0.001 vs. WT tissue/lobules (A, G, and H) or corresponding WT subcellular fraction (K and M). ##P<0.01 vs. no inhibitors (B) or MCD (Q and R). ††P<0.01, †††P<0.001 vs. the other two fractions (L and N). Significance was determined by 2-tailed Student's t test (A, G, and H) or 1-way ANOVA followed by Tukey's multiple comparison test (B, K-N, Q, and R). Scale bars: 10 μm.
(§1) Activities of cathepsin (Cat) B and L, caspase-3, trypsin, and lysosomal acid lipase (LAL) were measured in pancreatic tissue or cell homogenates and subcellular fractions with fluorogenic assays using substrates specific for CatB (Z-Arg-Arg-AMC), CatL (Z-Phe-Arg-AMC), caspase-3-like ([…]), trypsin (Boc-Gln-Ala-Arg-AMC), as previously described (1-4, 6, 7); and for LAL (4-methylumbelliferyl oleate), as in (17). In measurements of CatL activity, the assay buffer also contained 50 μM CA-074me, a CatB inhibitor. LAL activity was measured in the absence and presence of the LAL inhibitor lalistat (100 μM) as the difference between these values (17).

[4] = system: mouse pancreatic acinar cells; experiment: Ex-vivo CCK-AP in mouse pancreatic acinar cells treated with simvastatin or MCD; type: cell-based; details: simvastatin 4 μM, 3 h or MCD 10 mM, 1 h
Method: FIGS. 26A-26D preventing cholesterol overload ameliorates ex-vivo pancreatitis. Mouse pancreatic acinar cells were incubated (A, B) with simvastatin (4 μM, 3 h) or (C, D) cholesterol chelator, methyl-β-cyclodextrin (MCD; 10 mM, 1 h) and then subjected to CCK-AP for 1 (D) or 3 h (A, B). Cholesterol content (A, C) necrosis (B), and trypsin activity (D) were measured. Each symbol represents an individual cell preparation. Values are mean±SEM*p<0/05, **p<0.01 vs control; #p<0.05 ##p<0.01; vs CCK, no inhibitor.
(§2) Ex vivo pancreatitis models were performed on mouse and human acinar cells, and human pancreas slices by incubation with supramaximal CCK (100 nM) or carbachol (1 mM), as described previously (80, 81).
as §1
(§3) Total cholesterol content was measured with Cholesterol Assay kit per manufacturer's instructions. Samples of mouse pancreas and liver, cell pellet homogenates, subcellular fractions, isolated mitochondria, and serum were diluted in the reaction buffer containing cholesterol probe and incubated at 37° C. for 1 h in the dark. To measure total cholesterol, the samples were subjected to digestion with cholesterol esterase. To measure non-esterified cholesterol, the esterase was omitted from the assay.

trypsin [5] = experiment: Trypsin activity in WT mouse acinar cells without and with CCK; type: cell-based; details: MCD 10 mM, 1 hour, 100 nM CCK
Method: FIGS. 10A-10N show deranged cholesterol metabolism causes acinar cell damage, while its normalization ameliorates experimental pancreatitis. (A-D) Cholesterol content and trypsin activity were measured (per mg protein) in WT mouse acinar cells incubated for 1 hour without and with methyl-β-cyclodextrin (MCD; 10 mM) or cholesterol-loaded MCD (MCD-Chol; 200 μg/mL), in the presence or absence of 100 nM CCK. Values are expressed relative to those in cells without MCD/MCD-Chol. (E-J) WT mice received daily i.p. injections of the LXR agonist T0901317 (T09), simvastatin (Sim; 20 mg/kg each), or vehicle. On day 4, mice were subjected to CER-AP and pancreata collected for analyses (see also FIG. 20). Cholesterol content (E), trypsin activity (F), and pancreas histopathology (H&E staining; G) were measured. (H, I, L, and N) IB analysis of markers/mediators of autophagy (LC3, p62), ER stress (CHOP, GRP-78), and mitophagy (Parkin). Ub, ubiquitylated proteins. (J) Mitochondrial fragmentation was assessed by immunostaining for Tom20, as detailed in FIG. 7G. […] Pancreas histopathology (H&E staining; M) and levels of autophagy markers/mediators (N) were measured. […] Significance was determined by 2-tailed Student's t test (A-D) or 1-way ANOVA followed by Tukey's multiple comparison test (E, F, and I). […]

mouse acinar cells [6] = experiment: Total cholesterol content of mouse acinar cells (ex vivo pancreatitis models or cholesterol chelator); type: cell-based; details: Gnptab−/− acinar cells
Method: (§4) FIGS. 8A-8M show derangement of cholesterol metabolism in experimental pancreatitis. Characteristics of cholesterol metabolism were measured, as detailed in FIGS. 4A-4R, in pancreas of WT mice subjected to pancreatitis induced with cerulein (CER-AP), L-arginine (Arg-AP), or CDE diet (CDE-AP) (A, B, and E-G); ex vivo pancreatitis induced in WT mouse (C and I-M) or human acinar cells (D) with 100 nM CCK (CCK-AP) or 1 mM carbachol; and isolated pancreatic mitochondria (H). (B) Cholesterol ester (CE) heatmap; each column represents an individual mouse. (F) IB analysis of the indicated proteins. (G) LAL activity was measured by a fluorogenic assay (n=6 mice per condition). (H) Cholesterol content was measured by enzymatic assay. (I-M) Filipin colocalization with indicated proteins was quantified as detailed in FIGS. 2A-2L. Each symbol in A, C-E, and H represents an individual mouse, or cell or mitochondria preparation (n=3-15 per condition). Each symbol in J, K, and M corresponds to 20-30 cells in a different field (n=10-20 fields from 3 cell preparations per condition). Values are mean±SEM. *P<0.05, **P<0.01, ***P<0.001 vs. the same parameter in control/untreated pancreas, acinar cells or isolated mitochondria. Significance was determined by 2-tailed Student's t test (B, E, H, J, K, and M) or 1-way ANOVA followed by Tukey's multiple comparison test (A, C, and D). Scale bars: 10 μm.
Parameters of cholesterol metabolism were measured in (A, B, E, F) pancreas of mice subjected to pancreatitis induced with cerulean (CER-AP), L-arginine (Arg-AP), or combination of EtOH+palmitoleic acid (EtOH+POA); and (C) ex-vivo models on mouse and human acinar cells treated for 1 h with 100 nM CCK, […] or 500 μM TLCS. In (A), each column in CE heatmap represents an individual mouse. (B, C) Total cholesterol content was measured with cholesterol assay kit (Abcam, ab65390). […] Each symbol corresponds to 20-30 cells in each of 8 high-expression (qPCR) of proteins regulating cholesterol synthesis (4 mice/group). (B-D) Each symbol represents an individual animal or cell preparation. (A-D, F) Values are mean±SE (*p<0.05, **p<0.01, ***p<0.001 vs saline or control). Signficance was determined by 2-tailed student's t test.
as §2, §3
Fluorescence intensity (for cholesterol) and absorbance (for TAG) were measured in a Tecan microplate reader. Each measurement was in duplicate, and the values were normalized per mg total protein in the sample.

pancreas [7] = experiment: Pancreatic mRNA expression and protein levels (qPCR, IB) in cerulein pancreatitis; type: in vivo, mouse
Method: as §4
FIGS. 9A-9E show cerulein pancreatitis decreases pancreatic levels of GNPTAB and mediators of cholesterol trafficking through LE/Ly. (A, D, and E) IB analysis of the indicated proteins in pancreas of WT mice subjected to CER-AP and in Gnptab^−/− mice. NS, nonspecific band. (B and C) Cholesterol content was measured in pancreas of (B) WT mice that received daily i.p. injections of the NPC1 inhibitor U18666A (10 mg/kg) or vehicle for 15 days and (C) Lamp2^−/− mice. Each symbol in B, C, and E represents an individual mouse. Values are mean±SEM from 3 to 5 mice per condition. ***P<0.001 vs. the same parameter in WT control/untreated or saline-treated mice. Significance was determined by 2-tailed Student's t test (B and C) or 1-way ANOVA followed by Tukey's multiple comparison test (E).
(§5) Cerulein-induced (CER-AP) and L-arginine induced (Arg-AP) acute pancreatitis models were performed in 12-week-old C57BL/6 mice that received 7 hourly i.p. injections of 50 μg/kg cerulein or 3 hourly i.p. injections of 3.3 g/kg Arg; controls received physiologic saline injections. Mice were euthanized for analyses 7 hours after the first cerulein or 24 hours after the first Arg injection. Choline deficient, ethionine-supplemented (CDE) pancreatitis was induced in young (~5-weeks old) female mice fed either CDE or control diet. Mice were euthanized 72 hours after the diet initiation. These models have been described in detail (1-7).
Immunoblots were developed using enhanced chemiluminescence detection kit (Pierce), and band intensities were quantified by densitometry using FluorChem HD2 imaging system (Alpha Innotech/ProteinSimple).
qPCR. Total RNA was isolated from tissue or cells using QIAGEN RNeasy Plus kit according to the manufacturer's instructions, quantified in NanoDrop, and converted to cDNA with high-capacity cDNA reverse transcription kit. KAPA SYBR FAST qPCR Master Mix kit and a LightCycler 480 were used for quantitative PCR. Fold change related to the control group was calculated using the 2ΔΔCt method with Rplp0/36B4 as the reference gene. Primers are available upon request.

pancreatic mitochondria = experiment: Cholesterol content of isolated pancreatic mitochondria in cerulein pancreatitis; type: in vivo, mouse; details: WT mice with CER-AP
Method: as §4, with “Each symbol in A, C-E, and H represents an individual mouse, or cell or mitochondria preparation (n=3-15 per condition). Each symbol in J, K, and M corresponds to 20-30 cells in a different field (n=10-20 fields from 3 cell preparations per condition). Values are mean±SEM. *P<0.05, **P<0.01, ***P<0.001 vs. the same parameter in control/untreated pancreas, acinar cells or isolated mitochondria.” left out, “Scale bars: 10 μm.” left out
Mitochondria were isolated from mouse pancreas and liver in a Ca2+-free medium in the presence of 1 mM EGTA, as in (3-5,13). The value of respiratory control ratio in these preparations, measured in the presence of succinate (quality control parameter), was greater than 3.0.
(§6) Total cholesterol content was measured with Cholesterol Assay kit per manufacturer's instructions. […]

[8] = system: lysosomal acid lipase (LAL); experiment: Lysosomal acid lipase (LAL) activity in cerulein pancreatitis; type: in vivo, mouse; details: WT mice with CER-AP
Method: as §4, with “Each symbol in A, C-E, and H represents an individual mouse, or cell or mitochondria preparation (n=3-15 per condition). Each symbol in J, K, and M corresponds to 20-30 cells in a different field (n=10-20 fields from 3 cell preparations per condition). Values are mean±SEM. *P<0.05, **P<0.01, ***P<0.001 vs. the same parameter in control/untreated pancreas, acinar cells or isolated mitochondria.” left out, “Scale bars: 10 μm.” left out
Activities of cathepsin (Cat) B and L, caspase-3, trypsin, and lysosomal acid lipase (LAL) were measured in pancreatic tissue or cell homogenates and subcellular fractions with fluorogenic assays using substrates specific for CatB (Z-Arg-Arg-AMC), CatL (Z-Phe-Arg-AMC), caspase-3-like ([…]), trypsin (Boc-Gln-Ala-Arg-AMC), as previously described (1-4, 6, 7); and for LAL (4-methylumbelliferyl oleate), as in (17). […]

pancreas [9] = experiment: Pancreatic total cholesterol and lipids in acute pancreatitis models in WT mice; type: in vivo, mouse
Method: as §4
Parameters of cholesterol metabolism were measured in (A, B, E, F) pancreas of mice subjected to pancreatitis induced with cerulean (CER-AP), L-arginine (Arg-AP), or combination of EtOH+palmitoleic acid (EtOH+POA); and (C) ex-vivo models on mouse and human acinar cells treated for 1 h with 100 nM CCK, […] or 500 μM TLCS. […] (B, C) Total cholesterol content was measured with cholesterol assay kit (Abcam, ab65390). […] Signficance was determined by 2-tailed student's t test. […]
as §6
Triglycerides (TAG) content was measured using Triglyceride Assay kit. […]

[10] = Serum cholesterol in cerulein pancreatitis; type: in vivo, mouse; details: CER-AP
Method: as §5, §3

OC[C@H]1O[C@H](O[C@H]2O[C@H](CO)[C@@H](O)[C@H](O)[C@H]2O)[C@H](O)[C@@H](O)[C@@H]1O [trehalose]
pancreas injury in AP models (pancreas [1]): largely prevented

methyl-β-cyclodextrin [MCD]
usual cholesterol-reducing MCD concentration (mouse acinar cells [2]): 1 to 5 mM | Trypsin activity, KO cells, MCD (trypsin [3]): greatly decreased | cholesterol overload in ex-vivo CCK-AP [4]: Reducing | extent of necrosis in ex-vivo CCK-AP [4]: greatly decreased | trypsinogen activation in ex-vivo CCK-AP [4]: greatly decreased | CCK-induced trypsinogen activation (trypsin [5]): reduced | Resistance of Gnptab−/− acinar cells to MCD (mouse acinar cells [6]): highly resistant | MCD concentration at which cholesterol-reducing effect is evident (mouse acinar cells [6]; only at this concentration): 50 mM

CSCC[C@H](NC(=O)[C@H](Cc1c[nH]c2ccccc12)NC(=O)CNC(=O)[C@@H](NC(=O)[C@H](Cc1ccc(OS(=O)(=O)O)cc1)NC(=O)[C@H](CC(=O)O)NC(=O)[C@H](CCC(N)=O)NC(=O)[C@@H]1CCC(=O)N1)[C@@H](C)O)C(=O)N[C@@H](CC(=O)O)C(=O)N[C@@H](Cc1ccccc1)C(N)=O [cerulein] (HELM PEPTIDE1{[Glp].Q.D.[O=C([C@H](Cc1ccc(OS(=O)(=O)O)cc1)N[*:1])[*:2]].T.G.W.M.D.F.[am]}$$$$V2.0)
decrease in pancreatic GNPTAB α-subunit protein level (pancreas [7]; CER-AP): approximately 5 fold | pancreatic LAMP2 levels (pancreas [7]; CER-AP): greatly decrease | LDLR protein level (pancreas [7]; WT mice with CER-AP): increased | SREBP2 protein level (pancreas [7]; WT mice with CER-AP): increased | pancreatic NPC1 (pancreas [7]; WT mice with CER-AP): greatly decreased | pancreatic mRNA expression for enzymes mediating cholesterol synthesis (pancreas [7]; WT mice with CER-AP): upregulation | NPC2 levels (pancreas [7]; WT mice with CER-AP, listed as CER): no change; also recorded: not reduced | mitochondrial cholesterol (pancreatic mitochondria): elevated | LAL activity [8]: increased | pancreatic total cholesterol, AP models (pancreas [9]; Arg-AP, CER-AP or CDE-AP): increases | pancreatic triglycerides in CER-AP (pancreas [9]; CER-AP): unchanged | serum cholesterol levels [10]: did not change
